{"source": "paper PMC12643509", "about": "“High-throughput screens identify genotype-specific therapeutics for channelopathies” (JCI Insight, 2025)", "key": {"[1]": {"molecular_target": "Kv11.1 missense variants, residues 536–628 (Homo sapiens, UniProt Q12809, Y475A)", "sequence (Q12809 whole entry Y475A, the tested form may be a part)": "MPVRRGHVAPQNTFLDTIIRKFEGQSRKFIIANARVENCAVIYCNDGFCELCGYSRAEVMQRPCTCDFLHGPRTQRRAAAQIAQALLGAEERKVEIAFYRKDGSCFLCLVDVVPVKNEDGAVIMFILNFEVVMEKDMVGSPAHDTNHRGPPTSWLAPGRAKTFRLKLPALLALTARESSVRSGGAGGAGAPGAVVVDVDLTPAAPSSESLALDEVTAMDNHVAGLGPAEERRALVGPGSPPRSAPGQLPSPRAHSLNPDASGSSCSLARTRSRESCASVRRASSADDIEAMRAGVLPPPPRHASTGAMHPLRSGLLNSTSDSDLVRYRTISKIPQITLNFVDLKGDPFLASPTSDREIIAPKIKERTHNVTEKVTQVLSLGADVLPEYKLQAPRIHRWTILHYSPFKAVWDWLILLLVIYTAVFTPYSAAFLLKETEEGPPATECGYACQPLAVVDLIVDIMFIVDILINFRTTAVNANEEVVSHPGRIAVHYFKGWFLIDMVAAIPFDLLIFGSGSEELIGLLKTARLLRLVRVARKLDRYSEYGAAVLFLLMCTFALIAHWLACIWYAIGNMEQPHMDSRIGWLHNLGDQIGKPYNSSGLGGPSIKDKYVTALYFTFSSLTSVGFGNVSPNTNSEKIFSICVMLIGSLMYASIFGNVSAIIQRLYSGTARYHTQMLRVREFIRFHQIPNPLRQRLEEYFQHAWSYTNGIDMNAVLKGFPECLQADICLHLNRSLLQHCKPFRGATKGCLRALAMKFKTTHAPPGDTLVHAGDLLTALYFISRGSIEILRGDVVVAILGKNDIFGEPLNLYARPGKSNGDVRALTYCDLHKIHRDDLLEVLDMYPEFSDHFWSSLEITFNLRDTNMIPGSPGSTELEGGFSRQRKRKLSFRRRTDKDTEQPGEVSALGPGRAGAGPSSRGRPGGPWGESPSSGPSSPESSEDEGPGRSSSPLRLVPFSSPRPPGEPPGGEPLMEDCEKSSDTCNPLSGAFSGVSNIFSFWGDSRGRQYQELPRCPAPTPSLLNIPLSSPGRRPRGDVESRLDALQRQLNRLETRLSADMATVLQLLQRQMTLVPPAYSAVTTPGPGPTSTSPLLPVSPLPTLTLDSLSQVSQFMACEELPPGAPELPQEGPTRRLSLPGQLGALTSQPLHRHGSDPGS", "experiment": "Multiplexed assay of variant effect (saturation mutagenesis, FACS surface trafficking)", "details": "missense variant Y475A", "description": "(§1) Cells were grown to 40%–60% confluence and transiently transfected first with Bxb1 integrase (pCAG–NLS–HA–Bxb1) using FuGENE 6 (Promega), followed by KCNH2 variant libraries 24 hours later. On day 6, cells were induced with 1 μg/mL doxycycline. Integrated cell lines expressed a single variant alongside mCherry, while nonintegrated cells were tagBFP-positive and mCherry-negative.\n(§2) Saturation mutagenesis of Kv11.1 was performed using a modified promoterless dsRed-Express derivative plasmid. WT KCNH2 was inserted adjacent to an AttB site, and NdeI/BglII sites were created via synonymous mutations. […] These were purified, ligated, and electroporated into MegaX DH10B Electrocomp Cells.\n(§3) The mutant pool was subcloned into the AttB-KCNH2-HA:IRES:mCherry plasmid, with an 18-mer poly-N barcode inserted adjacent to the AttB site. Each cloning step was validated via Sanger sequencing. To link barcodes with mutants, the library was digested, ligated, and PCR amplified. Final products were purified and sequenced on an Illumina NovaSeq. Reads were analyzed with a custom Python script to identify barcodes linked to single mutations.\n(§4) HEK293T cells were cultured in αMEM (Corning) with 10% FBS and 1% GlutaMax at 37°C with 5% CO2. The KCNH2 variant library was integrated into a HEK293T “landing pad” cell line containing an AttP site between a tetracycline-inducible promoter and a blue fluorescent protein gene.\n(§5) Cells were transfected using FuGENE 6, first with a plasmid expressing Bxb1 integrase (pCAG–NLS–HA–Bxb1) and then, the following day, with the KCNH2 variant library. On day 6, cells were incubated with 1 μg/mL doxycycline to induce expression from the landing pad’s promoter. Resulting stable cell lines expressed one variant and mCherry, while nonintegrated cells expressed tagBFP and were mCherry-negative.\n(§6) Stable HEK293T cell lines were cultured in T75 flasks until 80%–90% confluent. […] After treatments, high-throughput quantitation was performed at the Vanderbilt University Medical Center Flow Cytometry Shared Resource Core (FCSR).\n(§7) The treated HEK293T library was sorted via FACS to isolate cells with high mCherry expression and successful AttB plasmid integration. […] Sorted cells were repopulated and prepared for freezing, pelleted at 1 million cells per tube.\n(§8) DNA was isolated from cell pools (100 μL QuickExtract per 1 million cells) and the barcode was PCR amplified for Illumina sequencing using Q5 polymerase (25–35 cycles). Sequencing reads were demultiplexed and analyzed using custom Python scripts (https://github.com/kroncke-lab/KCNH2_DMS) to identify barcodes.\n(§9) The scores were then averaged across the 4 replicate experiments (separate transfections of the mutant library pool)."}, "[2]": {"system": "Kv11.1 missense variants, residues 536–628", "experiment": "Multiplexed assay of variant effect (saturation mutagenesis, FACS surface trafficking)", "description": "as §1, §2, §3, §4, §5, §6, §7, §8, §9"}, "[3]": {"molecular_target": "Kv11.1 missense variants, residues 536–628 (Homo sapiens, UniProt Q12809, Y475D)", "sequence (Q12809 whole entry Y475D, the tested form may be a part)": "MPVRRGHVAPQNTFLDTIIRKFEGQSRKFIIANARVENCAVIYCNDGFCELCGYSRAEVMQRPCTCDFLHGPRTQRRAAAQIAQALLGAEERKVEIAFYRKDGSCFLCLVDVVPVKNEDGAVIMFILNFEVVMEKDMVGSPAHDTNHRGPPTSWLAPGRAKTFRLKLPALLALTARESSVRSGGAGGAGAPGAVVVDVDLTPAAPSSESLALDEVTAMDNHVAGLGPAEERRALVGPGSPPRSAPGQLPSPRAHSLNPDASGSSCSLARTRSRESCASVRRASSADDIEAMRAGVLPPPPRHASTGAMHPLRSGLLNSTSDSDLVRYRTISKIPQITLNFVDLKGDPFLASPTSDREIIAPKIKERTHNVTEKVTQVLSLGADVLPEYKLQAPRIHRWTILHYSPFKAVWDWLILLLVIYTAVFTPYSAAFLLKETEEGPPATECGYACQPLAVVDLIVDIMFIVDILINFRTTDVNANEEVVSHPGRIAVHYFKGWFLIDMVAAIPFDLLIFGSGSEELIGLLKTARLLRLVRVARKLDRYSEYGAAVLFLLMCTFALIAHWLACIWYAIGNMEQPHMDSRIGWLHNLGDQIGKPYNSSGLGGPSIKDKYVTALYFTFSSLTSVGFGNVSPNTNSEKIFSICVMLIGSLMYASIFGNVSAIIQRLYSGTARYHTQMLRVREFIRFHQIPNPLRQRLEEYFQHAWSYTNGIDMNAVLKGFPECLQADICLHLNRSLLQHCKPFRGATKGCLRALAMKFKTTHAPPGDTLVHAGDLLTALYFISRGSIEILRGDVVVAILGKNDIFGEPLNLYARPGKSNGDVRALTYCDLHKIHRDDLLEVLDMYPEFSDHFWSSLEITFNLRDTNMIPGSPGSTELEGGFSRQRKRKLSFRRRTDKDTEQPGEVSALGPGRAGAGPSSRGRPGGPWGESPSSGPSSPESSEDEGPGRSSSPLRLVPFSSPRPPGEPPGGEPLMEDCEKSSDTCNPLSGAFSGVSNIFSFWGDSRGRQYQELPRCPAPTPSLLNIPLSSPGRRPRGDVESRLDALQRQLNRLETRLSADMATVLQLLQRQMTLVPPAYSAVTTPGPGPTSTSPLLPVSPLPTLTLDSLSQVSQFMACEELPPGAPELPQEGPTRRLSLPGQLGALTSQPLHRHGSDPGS", "experiment": "Multiplexed assay of variant effect (saturation mutagenesis, FACS surface trafficking)", "details": "missense variant Y475D", "description": "as §1, §2, §3, §4, §5, §6, §7, §8, §9"}, "WT Kv11.1 [4]": {"molecular_target": "T1, WT Kv11.1 (Homo sapiens, UniProt Q12809)", "T1 sequence (Q12809 whole entry)": "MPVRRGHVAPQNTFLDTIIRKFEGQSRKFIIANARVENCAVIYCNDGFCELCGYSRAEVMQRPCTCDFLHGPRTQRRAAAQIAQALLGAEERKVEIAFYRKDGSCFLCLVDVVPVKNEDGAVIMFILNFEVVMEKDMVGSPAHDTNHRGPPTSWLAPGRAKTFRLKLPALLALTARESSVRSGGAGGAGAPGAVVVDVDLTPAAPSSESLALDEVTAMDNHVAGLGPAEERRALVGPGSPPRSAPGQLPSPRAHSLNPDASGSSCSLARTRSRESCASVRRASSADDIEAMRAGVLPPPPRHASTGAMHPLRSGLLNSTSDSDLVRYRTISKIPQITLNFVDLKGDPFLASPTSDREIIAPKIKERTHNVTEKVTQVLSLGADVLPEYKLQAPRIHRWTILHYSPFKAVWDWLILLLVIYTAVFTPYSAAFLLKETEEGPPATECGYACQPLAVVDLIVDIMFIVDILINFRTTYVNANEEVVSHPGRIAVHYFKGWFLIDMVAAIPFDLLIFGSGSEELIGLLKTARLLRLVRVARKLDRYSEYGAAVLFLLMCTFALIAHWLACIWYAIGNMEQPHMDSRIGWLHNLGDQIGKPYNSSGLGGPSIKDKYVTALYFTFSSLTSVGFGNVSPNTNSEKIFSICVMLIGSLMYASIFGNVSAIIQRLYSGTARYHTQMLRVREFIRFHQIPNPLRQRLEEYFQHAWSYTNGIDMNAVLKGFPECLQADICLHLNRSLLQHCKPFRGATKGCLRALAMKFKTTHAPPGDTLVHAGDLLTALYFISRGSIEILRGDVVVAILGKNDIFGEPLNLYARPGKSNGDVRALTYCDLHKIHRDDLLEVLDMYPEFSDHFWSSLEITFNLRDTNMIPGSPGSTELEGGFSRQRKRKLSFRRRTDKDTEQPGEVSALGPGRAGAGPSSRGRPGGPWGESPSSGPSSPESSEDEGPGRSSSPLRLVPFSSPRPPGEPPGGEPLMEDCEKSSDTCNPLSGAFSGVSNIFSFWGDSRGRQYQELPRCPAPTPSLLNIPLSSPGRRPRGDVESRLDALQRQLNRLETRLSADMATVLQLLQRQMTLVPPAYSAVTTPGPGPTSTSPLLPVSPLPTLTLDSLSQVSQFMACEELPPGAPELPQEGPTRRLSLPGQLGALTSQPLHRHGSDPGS", "details": "24 hour and washout, individual wells", "excerpt": "plot of hits tested for 24-h our WT toxicity. Each point repres ents the med ia n robust Z score\nafter 24-hour treatm ent and washout in cells ex pressing WT.\nrobust Z scores be low bas eli ne function).\nsecond ary screens w ere perform ed i n triplicate us ing 1 0 µ M drug treatme nt to assess: 1)\nacute channel block, measur ed after a 15-minute inc ubati on with the drug present duri ng\nrecordi ngs; and 2) t oxicit y in W T channels, assesse d af t er a 24-hour drug ex posure fol low ed\n(C) Tl+-measurements after 24-hour treatment and washout in HEK cells"}, "C57BL/6J mice": {"system": "C57BL/6J mice", "experiment": "Mouse ECG analysis (cardiac safety)", "type": "in vivo", "parameters": "QTc / QT: unit not given here"}, "WT Kv11.1 [5]": {"molecular_target": "T1, WT Kv11.1", "experiment": "Whole-cell patch-clamp electrophysiology, drug in bath solution, WT", "type": "cell-based", "parameters": "expressed in transfected cells", "details": "individual replicates", "source_text": "Peak stea dy-sta te current was\nTail current was fit with a […]"}, "[6]": {"details": "mouse ECG, individual animals (Figure S5)"}, "[7]": {"details": "mouse ECG, individual animals (Figure S5), in ms (unit assumed)"}}, "note": "Where “and” joins values, the source holds several entries; their conditions need not be identical. Equal entries are not always repeated."}
{"smiles": "Cc1cc(C)c2c(c1)[C@@H](N(Cc1cc(C(F)(F)F)cc(C(F)(F)F)c1)c1nnn(C)n1)CCCN2C[C@H]1CC[C@H](C(=O)O)CC1", "note": "[Evacetrapib, evacetrapib]", "values": [{"measurement": "score (Figure 6B)", "setting": "[1]", "result": 25.1035}, {"measurement": "share of the 546 variants rescued by either drug that evacetrapib improved", "setting": "[2]; 10 μmol/L, 24 hours", "result": 45, "unit": "%"}, {"measurement": "share of known pathogenic variants in the pore region with improved trafficking", "setting": "[2]; 16 out of 94", "result": 17, "unit": "%"}, {"measurement": "share of all trafficking-deficient variants in this channel segment with improved trafficking", "setting": "[2]; 248 out of 971, 10 μmol/L, 24 hours", "result": 25, "unit": "%"}, {"measurement": "number of trafficking-deficient variants with improved trafficking", "setting": "[2]; of 971 variants with ≥90% loss of surface expression, 10 μmol/L, 24 hours", "result": 248}, {"measurement": "number of known pathogenic variants in the pore region with improved trafficking", "setting": "[2]; out of 94, 10 μmol/L, 24 hours", "result": 16}, {"measurement": "score (Figure 6B)", "setting": "[3]", "result": 152.736}, {"measurement": "Changes in WT function (thallium flux)", "setting": "WT Kv11.1 [4]", "result": "0.1125 and 0.1113 and 0.1215"}, {"measurement": "ECG parameters, including the QT interval", "setting": "C57BL/6J mice; mice, 40 mg/kg intraperitoneally, 30 minutes post-drug", "result": "No significant differences"}, {"measurement": "P duration", "setting": "C57BL/6J mice; [6]", "result": "13.6667 and 11.3333 and 10.6667 and 11.6667 and 9 and 13.3333 and 12.3333"}, {"measurement": "PR interval", "setting": "C57BL/6J mice; [6]", "result": "56.3333 and 38.3333 and 42.3333 and 46.6667 and 44.6667 and 41.6667"}, {"measurement": "QT", "setting": "C57BL/6J mice; [6]", "result": "31.3333 and 39.3333 and 34 and 35.3333 and 42.3333"}, {"measurement": "QTc", "setting": "C57BL/6J mice; [6]", "result": "30.5782 and 35.4177 and 28.9078 and 33.1412 and 36.2561 and 31.0292 and 33.811"}, {"measurement": "QRS", "setting": "C57BL/6J mice; [7]", "result": "12 and 11 and 10.6667 and 10.3333"}, {"measurement": "RR", "setting": "C57BL/6J mice; [7]", "result": "105 and 123.333 and 138.333 and 113.667 and 136.333 and 129.667 and 135.333"}, {"measurement": "Figure 5B value per cell vs Time", "setting": "WT Kv11.1 [5]; Time 480", "result": "-0.4681 and -0.2647 and -0.2507 and -0.1972 and -0.3239 and -0.2271"}, {"measurement": "Figure 5B value per cell vs Time", "setting": "WT Kv11.1 [5]; Time 540", "result": "-0.5284 and -0.3222 and -0.285 and -0.2169 and -0.3896 and -0.2816"}, {"measurement": "Figure 5B value per cell vs Time", "setting": "WT Kv11.1 [5]; Time 600", "result": "-0.588 and -0.3629 and -0.3374 and -0.2423 and -0.4551 and -0.3284"}, {"measurement": "Figure 5B value per cell vs Time", "setting": "WT Kv11.1 [5]; Time 660", "result": "-0.6518 and -0.4077 and -0.3785 and -0.3017 and -0.5218 and -0.3806"}, {"measurement": "Figure 5B value per cell vs Time", "setting": "WT Kv11.1 [5]; Time 720", "result": "-0.7017 and -0.4517 and -0.4377 and -0.3271 and -0.5811 and -0.4215"}, {"measurement": "Figure 5B value per cell vs Time", "setting": "WT Kv11.1 [5]; Time 780", "result": "-0.7446 and -0.5087 and -0.4704 and -0.3371 and -0.6312 and -0.4754"}, {"measurement": "Figure 5B value per cell vs Time", "setting": "WT Kv11.1 [5]; Time 840", "result": "-0.7775 and -0.545 and -0.522 and -0.4074 and -0.6797 and -0.5211"}, {"measurement": "Figure 5B value per cell vs Time", "setting": "WT Kv11.1 [5]; Time 900", "result": "-0.7865 and -0.5874 and -0.5479 and -0.435 and -0.735 and -0.566"}, {"measurement": "Figure 5B value per cell vs Time", "setting": "WT Kv11.1 [5]; Time 960", "result": "-0.833 and -0.6254 and -0.582 and -0.4724 and -0.7754 and -0.6113"}, {"measurement": "Figure 5B value per cell vs Time", "setting": "WT Kv11.1 [5]; Time 1020", "result": "-0.8444 and -0.6633 and -0.6057 and -0.489 and -0.8272 and -0.6494"}, {"measurement": "Figure 5B value per cell vs Time", "setting": "WT Kv11.1 [5]; Time 1080", "result": "-0.8739 and -0.6879 and -0.652 and -0.5518 and -0.8519 and -0.6869"}, {"measurement": "Figure 5B value per cell vs Time", "setting": "WT Kv11.1 [5]; Time 1140", "result": "-0.894 and -0.7265 and -0.6824 and -0.5792 and -0.8903 and -0.723"}, {"measurement": "Figure 5B value per cell vs Time", "setting": "WT Kv11.1 [5]; Time 1200", "result": "-0.8957 and -0.756 and -0.7067 and -0.6036 and -0.9115 and -0.75"}, {"measurement": "Figure 5B value per cell vs Time", "setting": "WT Kv11.1 [5]; Time 1260", "result": "-0.9162 and -0.7845 and -0.7409 and -0.6519 and -0.9274 and -0.7716"}, {"measurement": "Figure 5B value per cell vs Time", "setting": "WT Kv11.1 [5]; Time 1320", "result": "-0.9293 and -0.808 and -0.7659 and -0.6564 and -0.944 and -0.7966"}, {"measurement": "Figure 5B value per cell vs Time", "setting": "WT Kv11.1 [5]; Time 1380", "result": "-0.9321 and -0.8297 and -0.7811 and -0.6653 and -0.9508 and -0.8202"}, {"measurement": "Figure 5B value per cell vs Time", "setting": "WT Kv11.1 [5]; Time 1440", "result": "-0.9456 and -0.8515 and -0.7941 and -0.6916"}, {"measurement": "Figure 4B value per cell vs Voltage (mV)", "setting": "WT Kv11.1 [5]; Voltage 0 mV", "result": "11.8726 and 11.4943 and 10.3496 and 10.9094 and 10.8921"}, {"measurement": "Figure 4B value per cell vs Voltage (mV)", "setting": "WT Kv11.1 [5]; Voltage 10 mV", "result": "8.653 and 8.735 and 8.112 and 8.594 and 8.227"}, {"measurement": "Figure 4B value per cell vs Voltage (mV)", "setting": "WT Kv11.1 [5]; Voltage 20 mV", "result": "6.045 and 6.561 and 6.2 and 6.536 and 6.09"}, {"measurement": "Figure 4B value per cell vs Voltage (mV)", "setting": "WT Kv11.1 [5]; Voltage 30 mV", "result": "4.263 and 4.813 and 4.589 (2×) and 4.855"}]}
